According to PMC10747661, “Preparation of trans-Crocetin with High Solubility, Stability, and Oral Bioavailability by Incorporation into Three Types of Cyclodextrins” (Pharmaceutics, 2023):
≈ marks a conversion by molar mass, not a printed value. Like-named read-outs stand apart in the source and are kept apart here.

Legend:
[1] = Dissolution test (USP paddle method); format: physicochemical; details: phosphate buffer pH 6.8, 900 mL, 100 rpm, 37 °C
Procedure: The dissolution of CRT, PMs, and ICs was evaluated using the USP (version 26) paddle method with a dissolution tester (Tianjin University Electronics Co., Ltd., Tianjin, China). The dissolution medium was phosphate buffer (pH 6.8, 900 mL); the paddles were rotated at 100 rpm at 37.0 ± 0.5 °C. A sample volume of 5 mL was withdrawn from the dissolution medium at predetermined sampling points, filtered using a […] microporous filter membrane, and analyzed via HPLC. All dissolution tests were performed in triplicate.

Solubility determination = format: physicochemical; details: thermodynamic from solid, 25 °C
Procedure: Drug solubility at 25 ± 0.5 °C was determined in water and phosphate buffer (pH 6.8). Excesses of CRT and each IC were added to each fluid and placed in a thermostatic water bath in the dark at 25 ± 0.5 °C with a constant shaking rate of 100 rpm for 72 h. After the equilibrium state was reached, the solutions were centrifuged for 15 min, and 2 mL of the supernatant was diluted with an appropriate amount of methanol. Drug concentrations were determined using HPLC.

[2] = Effect of storage on stability (heat, light, moisture); format: physicochemical; details: 60 ± 0.5 °C, 10 days
Procedure: All samples were sealed in transparent glass bottles and divided into three groups, each containing CRT/α-CD IC (500 mg), CRT/HP-β-CD IC (500 mg), CRT/γ-CD IC (500 mg), and intact CRT (500 mg). The first group was stored at 60 ± 0.5 °C for 10 days. The second group was stored at 25 ± 0.5 °C with a light intensity of 4500 ± 500 lx for 10 days. The third group was stored at 25 ± 0.5 °C with 75% relative humidity for 10 days. The CRT contents were sampled and measured on days 0, 5, and 10. Each test was repeated at least three times.

[3] = Pharmacokinetics study after intragastric administration; format: in vivo; details: Sprague-Dawley, rat, plasma, po, SD rats, 20 mg/kg intragastric, n = 6
Procedure: Twenty-four SD rats were randomly divided into four groups and administered CRT/α-CD IC, CRT/HP-β-CD IC, CRT/γ-CD IC, or intact CRT. All rats were fasted for 12 h and only provided water before experiments. All samples at a dose of 20 mg/kg body weight were administered intragastrically. Blood samples (0.4 mL) were collected from the orbital venous plexus at predetermined time points (0.083, 0.167, 0.25, 0.5, 1, 2, 4, 6, 8, 12, and 24 h) into tubes containing heparin sodium. The blood samples were centrifuged immediately at 4000 rpm for 15 min; the supernatant layer of plasma was separated and stored at 4 °C for 24 h. CRT in plasma was extracted with 600 μL methanol with an internal standard of 10 μL ATRA from 200 μL plasma samples and centrifuged at 10,000 rpm for 15 min at 4 °C. The supernatant layer was transferred to a new tube, concentrated to remove solvents under the LSE-1K vacuum centrifuge concentrator (JTLIANGYOU, Changzhou, China), and redissolved in 200 μL of methanol for analysis. The concentration of CRT was determined using an HPLC (Waters HPLC system consisting of a 2695–2487 UV detector, Milford, MA, USA) using a COSMOSIL-C18 (150 mm × 4.6 mm, 5 μm) column with a detection wavelength of 424 nm. The injection volume was 20 μL, the column temperature was 35 °C, the mobile phase was methanol with water and glacial acetic acid in a ratio (v:v:v) of 92:7.7:0.3, and the flow rate was 1 mL/min. The pharmacokinetic parameters were calculated using DAS 2.0. Relative bioavailability percentage was calculated as follows:Relative bioavailability (%) = (AUC0–∞ IC/AUC0–∞ CRT) × 100 (2)

[4] = parameters: method as in PMID 16131146; details: mice, oral, cited from earlier work
[5] = parameters: method as in PMID 21112749, PMID 21398065; details: humans, CRT or saffron tea orally, cited from earlier work

CC(/C=C/C=C(\C)C(=O)O)=C\C=C\C=C(C)\C=C\C=C(/C)C(=O)O [CRT, Crocetin]
cumulative dissolution rate at 180 min [1]: 13% | solubility at 72 h (Solubility determination; phosphate buffer, pH 6.86, aqueous buffer, buffer salt, read-out: Solubility of CRT in pH6.86 Buffer Salt): 1.84 ± 0.11 µg/mL | solubility at 72 h (Solubility determination; water, read-out: Solubility of CRT in H2O): 1.23 ± 0.07 µg/mL (≈ 3.75 µM) | relative content (retention) of CRT after thermal treatment [2]: 80% | AUC(0-inf) [3]: 2660 ± 196 ng·h/mL | Cmax [3]: 545 ± 23 ng/mL | Tmax [3]: 2 h | half-life [3]: 2.06 ± 0.237 h | AUC(0-t) ([3]; read-out: AUC0–12): 2410 ± 163 ng·h/mL | MRT last ([3]; read-out: MRT0–12): 3.03 ± 0.082 h | time of highest plasma concentration ([4]; dose of 117.2 mg/mL): approximately 2 h | highest plasma concentration of CRT [4]: 1249.3 ± 788.1 ng/mL | concentrations of CRT in the blood ([5]; based on the dose): 100.9 to 279.7 ng/mL | Tmax [5]: approximately 4.6 h
